Experimental data from patent US20120295321A1, “Pentose Transporters and Uses Thereof” (Universiteit Utrecht Holding B.V., priority 2009, published 2012).
Where two headings read alike, the source gives them in different places.

B1: Aspergillus niger pentose transporter protein An03g02190 (2190), FIG. 8A (Aspergillus niger CBS 513.88) (protein)
chain: MPRKRPQDELNGDVLQQEAQATGPNDQKSEEGIVDTPIPLLTWRSFLMGIFVSMGGFLFGYDTGQISGFLEMPNFLQRYGQQQADGTYYFSNARSGLIVALLSIGTLIGALIAAPIADRVGRKWSISGWSAMVCVGITIQISSPFGKWYQVAMGRWVAGLGVGALSLLVPMYQAETGPRHIRGSLVSTYQLFITLGIFVANCINFGTEARNDTGSWRIPMGITYIWAMILGFGIALFPESARYDYRHGREAKAARTLSRMYGIPENHRMLKLEIGEIRQKFVEEQERGEITWSHLLHAPRMKYRVAVGVALQALQQLTGANYFFYYGTTIFRGAGISNSYVTQMILGGVNFGTTFLGLYLIENYGRRRSLITGALWMFVCFMVFASVGHFSLDHENPERTHTAGVVMVVFACLFILGFASTWGPMVWTIIAELYPSEFRARAMSLATASNWLWNFLLAFFTPFITSAIDFRLGYVFAGCLFLAAGLVYVAVIEGRGRTLEEIDTMYVMKVPPWKSSKYVFPDIDPYDRRGSILSKAGASHIPQVSGGNETLSPHTTEV

Key:
[1] = tested on: Aspergillus niger pentose transporter protein An06g00560 (0560), FIG. 1A; assay: zero trans-influx sugar transport assay (14C-labelled pentose uptake, transporter expressed in S. cerevisiae); format: biochemical; conditions: read-out: Km for L-arabinose, 5 s, 30° C., pH 6.5
Description: (§1) Cells were kept on ice until required.

[2] = tested on: Aspergillus niger pentose transporter protein An08g01720 (1720), FIG. 4A; assay: as above; format: biochemical
Description: as §1

[3] = tested on: Aspergillus niger pentose transporter protein An03g01620 (1620), FIG. 3A; assay: as above; format: biochemical
Description: as §1

[4] = tested on: S. cerevisiae strain expressing the 1100 (An11g01100) transporter; assay: toxic effect of pentose on yeast growth, strain expressing 1100 transporter; format: cell-based, Saccharomyces cerevisiae; conditions: 50 mM maltose, YNB + 2% agar + 0.5 mM CuSO4; further: key: ++++: very good growth; +++: good growth; ++: poor growth; +: very poor growth; +/−: growth barely visible; −: no growth
Method: (§2) Yeast strain EB.VW4000 was grown on YP [1% (w/v) Bacto yeast extract/2% (w/v) Bacto peptone]with 2% (w/v) maltose at 30° C. (ref strain). Other S. cerevisiae strains used were derived from strain EB.VW4000, and were transformed with plasmids based on pYEX-BX (Clontech). Plasmid transformations of yeast cells were carried out according to the quick and easy TRAFO protocol [TRAFO reference]. Yeast strains were grown at 30° C. in a rotary shaker at 250 rev./min, in YNB[0.67% (w/v) Difco yeast nitrogen base] supplemented with 0.1% (w/v) casamino acids and 0.2 mg/l tryptophan, 20 mg/l leucine, 20 mg/l histidine, 122 mg/l uridine. The carbon sources used were as stated in the text. Unless stated otherwise, 0.5 mM CuSO4 was used to induce expression from the CUP1 promoter.
(§3) Yeast strains provided with an exemplary novel pentose transporter were studied with respect to the effect of growth in the presence of pentose sugars.

[5] = tested on: S. cerevisiae strain expressing the 0560 (An06g00560) transporter; assay: toxic effect of pentose on yeast growth, strain expressing 0560 transporter; format: cell-based, Saccharomyces cerevisiae; conditions: 50 mM maltose, YNB + 2% agar + 0.5 mM CuSO4; further: key: ++++: very good growth; +++: good growth; ++: poor growth; +: very poor growth; +/−: growth barely visible; −: no growth
Method: as §2, §3

[6] = substrate: OC1OC[C@H](O)[C@H](O)[C@H]1O; assay: cells, lysate or membranes; conditions: other: zero trans-influx, 5 s, 30° C., pH 6.5
[7] = substrate: OC1OC[C@@H](O)[C@H](O)[C@H]1O; assay: cells, lysate or membranes; conditions: other: zero trans-influx, 5 s, 30° C., pH 6.5

Molecule	Km [1]	higher affinity for L-arabinose than An06g00560 ([2]; Km 4.9 mM compared to 75 mM)	Km ([2]; read-out: Km for L-arabinose, zero trans-influx, 5 s, 30° C., pH 6.5)	Km ([3]; read-out: Km for L-arabinose, 5 s, 30° C., pH 6.5)	growth ([4]; 25 mM pentose)	growth ([4]; 50 mM pentose)	growth ([4]; 100 mM pentose)	growth ([4]; 500 mM pentose)	growth ([5]; 25 mM pentose)	growth ([5]; 50 mM pentose)	growth ([5]; 100 mM pentose)	growth ([5]; 500 mM pentose)	Km ([3]; read-out: Km for D-xylose, 5 s, 30° C., pH 6.5)	Km [6]	Km [7]
OC1OC[C@H](O)[C@H](O)[C@H]1O (stereo partly drawn) [L-arabinose]	75 mM	approximately 15 fold	4.9 mM	7.5 mM	+++	++	+	+/−	+	+/−	+/−	−			
OC1OC[C@@H](O)[C@H](O)[C@H]1O (stereo partly drawn) [D-xylose]					++	+	+	+	+++	++	++	++	23 mM		
B1														2.6 mM mM	9 mM mM
